Measurements as given in ChEMBL document CHEMBL3045420, “Regulation of glycogen metabolism by anti-dyslipidemic action of gemfibrozil and cholestyramine in a dyslipidemic-diabetic hamster model” (2008).

Assays:
[1] = system: Syrian golden hamster; assay: Antidyslipidemic activity in Mesocricetus auratus (Syrian golden hamster) high fat diet-induced dyslipidemic-diabetic model assessed as increase of nonesterfied fatty acid fecal excretion at 500 mg/kg, po qd for 10 days relative to control; assay type: functional, Feces
[2] = system: Syrian golden hamster; assay: Antidyslipidemic activity in Mesocricetus auratus (Syrian golden hamster) high fat diet-induced dyslipidemic-diabetic model assessed as increase of triglyceride fecal excretion at 500 mg/kg, po qd for 10 days relative to control; assay type: functional, Feces
[3] = system: Syrian golden hamster; assay: Antidyslipidemic activity in Mesocricetus auratus (Syrian golden hamster) high fat diet-induced dyslipidemic-diabetic model assessed as increase of cholesterylesters fecal excretion at 500 mg/kg, po qd for 10 days relative to control; assay type: functional, Feces
[4] = system: Syrian golden hamster; assay: Antidyslipidemic activity in Mesocricetus auratus (Syrian golden hamster) high fat diet-induced dyslipidemic-diabetic model assessed as increase of cholesterol fecal excretion at 500 mg/kg, po qd for 10 days relative to control; assay type: functional, Feces
[5] = system: Syrian golden hamster; assay: Antidyslipidemic activity in Mesocricetus auratus (Syrian golden hamster) high fat diet-induced dyslipidemic-diabetic model assessed as increase of deoxycholic acid fecal excretion at 500 mg/kg, po qd for 10 days relative to control; assay type: functional, Feces
[6] = system: Syrian golden hamster; assay: Antidyslipidemic activity in Mesocricetus auratus (Syrian golden hamster) high fat diet-induced dyslipidemic-diabetic model assessed as increase of cholic acid fecal excretion at 500 mg/kg, po qd for 10 days relative to control; assay type: functional, Feces
[7] = system: Syrian golden hamster; assay: Antidyslipidemic activity in Mesocricetus auratus (Syrian golden hamster) high fat diet-induced dyslipidemic-diabetic model assessed as decrease of LHD in muscle by measuring […] oxidation at 500 mg/kg, po qd for 10 days relative to control; assay type: functional
[8] = system: Syrian golden hamster; assay: Antidyslipidemic activity in Mesocricetus auratus (Syrian golden hamster) high fat diet-induced dyslipidemic-diabetic model assessed as decrease of LHD in liver by measuring […] oxidation at 500 mg/kg, po qd for 10 days relative to control; assay type: functional
[9] = system: Syrian golden hamster; assay: Antidyslipidemic activity in Mesocricetus auratus (Syrian golden hamster) high fat diet-induced dyslipidemic-diabetic model assessed as increase of glucose-6-phosphatase in liver by measuring […] release per mg of protein at 500 mg/kg, po qd for 10 days relative to control; assay type: functional
[10] = system: Syrian golden hamster; assay: Antidyslipidemic activity in Mesocricetus auratus (Syrian golden hamster) high fat diet-induced dyslipidemic-diabetic model assessed as increase of hexokinase in muscle by measuring […] release per mg of protein at 500 mg/kg, po qd for 10 days relative to control; assay type: functional
[11] = system: Syrian golden hamster; assay: Antidyslipidemic activity in Mesocricetus auratus (Syrian golden hamster) high fat diet-induced dyslipidemic-diabetic model assessed as effect on glycogen synthase in muscle by measuring sodium pyruvate release at 500 mg/kg, po qd for 10 days relative to control; assay type: functional
[12] = system: Syrian golden hamster; assay: Antidyslipidemic activity in Mesocricetus auratus (Syrian golden hamster) high fat diet-induced dyslipidemic-diabetic model assessed as effect on glycogen synthase in liver by measuring sodium pyruvate release at 500 mg/kg, po qd for 10 days relative to control; assay type: functional
[13] = system: Syrian golden hamster; assay: Antidyslipidemic activity in Mesocricetus auratus (Syrian golden hamster) high fat diet-induced dyslipidemic-diabetic model assessed as increase of glycogen phosphorylase in muscle by measuring […] release per mg of protein at 500 mg/kg, po qd for 10 days relative to control; assay type: functional
[14] = system: Syrian golden hamster; assay: Antidyslipidemic activity in Mesocricetus auratus (Syrian golden hamster) high fat diet-induced dyslipidemic-diabetic model assessed as increase of glycogen phosphorylase in liver by measuring […] release per mg of protein at 500 mg/kg, po qd for 10 days relative to control; assay type: functional
[15] = system: Syrian golden hamster; assay: Antidyslipidemic activity in Mesocricetus auratus (Syrian golden hamster) high fat diet-induced dyslipidemic-diabetic model assessed as reduction of total cholesterol level in liver at 500 mg/kg, po qd for 10 days relative to control; assay type: functional
[16] = system: Syrian golden hamster; assay: Antidyslipidemic activity in Mesocricetus auratus (Syrian golden hamster) high fat diet-induced dyslipidemic-diabetic model assessed as increase of insulin secretion per ml of plasma at 500 mg/kg, po qd for 10 days relative to control; assay type: functional
[17] = system: Syrian golden hamster; assay: Antidyslipidemic activity in Mesocricetus auratus (Syrian golden hamster) high fat diet-induced dyslipidemic-diabetic model assessed as reduction of glucose level in plasma at 500 mg/kg, po qd for 10 days relative to control; assay type: functional
[18] = system: Syrian golden hamster; assay: Antidyslipidemic activity in Mesocricetus auratus (Syrian golden hamster) high fat diet-induced dyslipidemic-diabetic model assessed as reduction of glycerol level in plasma at 500 mg/kg, po qd for 10 days relative to control; assay type: functional
[19] = system: Syrian golden hamster; assay: Antidyslipidemic activity in Mesocricetus auratus (Syrian golden hamster) high fat diet-induced dyslipidemic-diabetic model assessed as reduction of nonesterfied fatty acid level in plasma at 500 mg/kg, po qd for 10 days relative to control; assay type: functional
[20] = system: Syrian golden hamster; assay: Antidyslipidemic activity in Mesocricetus auratus (Syrian golden hamster) high fat diet-induced dyslipidemic-diabetic model assessed as reduction of triglyceride level in plasma at 500 mg/kg, po qd for 10 days relative to control; assay type: functional
[21] = system: Syrian golden hamster; assay: Antidyslipidemic activity in Mesocricetus auratus (Syrian golden hamster) high fat diet-induced dyslipidemic-diabetic model assessed as reduction of total cholesterol level in plasma at 500 mg/kg, po qd for 10 days relative to control; assay type: functional
[22] = system: Syrian golden hamster; assay: Antidyslipidemic activity in Mesocricetus auratus (Syrian golden hamster) high fat diet-induced dyslipidemic-diabetic model assessed as increase of lipase activity in liver at 500 mg/kg, po qd for 10 days relative to control; assay type: functional
[23] = system: Syrian golden hamster; assay: Antidyslipidemic activity in Mesocricetus auratus (Syrian golden hamster) high fat diet-induced dyslipidemic-diabetic model assessed as reduction of phospholipid level in muscle at 500 mg/kg, po qd for 10 days relative to control; assay type: functional
[24] = system: Syrian golden hamster; assay: Antidyslipidemic activity in Mesocricetus auratus (Syrian golden hamster) high fat diet-induced dyslipidemic-diabetic model assessed as reduction of phospholipid level in liver at 500 mg/kg, po qd for 10 days relative to control; assay type: functional
[25] = system: Syrian golden hamster; assay: Antidyslipidemic activity in Mesocricetus auratus (Syrian golden hamster) high fat diet-induced dyslipidemic-diabetic model assessed as reduction of triglyceride level in muscle at 500 mg/kg, po qd for 10 days relative to control; assay type: functional
[26] = system: Syrian golden hamster; assay: Antidyslipidemic activity in Mesocricetus auratus (Syrian golden hamster) high fat diet-induced dyslipidemic-diabetic model assessed as reduction of triglyceride level in liver at 500 mg/kg, po qd for 10 days relative to control; assay type: functional
[27] = system: Syrian golden hamster; assay: Antidyslipidemic activity in Mesocricetus auratus (Syrian golden hamster) high fat diet-induced dyslipidemic-diabetic model assessed as increase of glucose-6-phosphate level in muscle at 500 mg/kg, po qd for 10 days relative to control; assay type: functional
[28] = system: Syrian golden hamster; assay: Antidyslipidemic activity in Mesocricetus auratus (Syrian golden hamster) high fat diet-induced dyslipidemic-diabetic model assessed as increase of glucose-6-phosphate level in liver at 500 mg/kg, po qd for 10 days relative to control; assay type: functional
[29] = system: Syrian golden hamster; assay: Antidyslipidemic activity in Mesocricetus auratus (Syrian golden hamster) high fat diet-induced dyslipidemic-diabetic model assessed as increase of glycogen level in muscle at 500 mg/kg, po qd for 10 days relative to control; assay type: functional
[30] = system: Syrian golden hamster; assay: Antidyslipidemic activity in Mesocricetus auratus (Syrian golden hamster) high fat diet-induced dyslipidemic-diabetic model assessed as increase of glycogen level in liver at 500 mg/kg, po qd for 10 days relative to control; assay type: functional
[31] = system: Syrian golden hamster; assay: Antidyslipidemic activity in Mesocricetus auratus (Syrian golden hamster) high fat diet-induced dyslipidemic-diabetic model assessed as reduction of lipolysis in adipose tissue at 500 mg/kg, po qd for 10 days relative to control; assay type: functional; parameters: scale not given: the % may be the effect or the level left
[32] = system: Syrian golden hamster; assay: Antidyslipidemic activity in Mesocricetus auratus (Syrian golden hamster) high fat diet-induced dyslipidemic-diabetic model assessed as increase of lipase activity in muscle at 500 mg/kg, po qd for 10 days relative to control; assay type: functional
[33] = system: Syrian golden hamster; assay: Antidyslipidemic activity in Mesocricetus auratus (Syrian golden hamster) high fat diet-induced dyslipidemic-diabetic model assessed as reduction of total cholesterol level in muscle at 500 mg/kg, po qd for 10 days relative to control; assay type: functional

Question: Which Activity [1] does the source give for Cc1ccc(C)c(OCCCC(C)(C)C(=O)O)c1 [GEMFIBROZIL] here?
Answer: 53.79 µmol/g

Question: And the Activity [2]?
Answer: 960 µg/g

Question: What about the Activity [3] of the same compound?
Answer: 258.79 µg/g

Question: What about the Activity [4] of the same compound?
Answer: 858.81 µg/g

Question: What about the Activity [5] of the same compound?
Answer: 38.48 µg/g

Question: And the Activity [6]?
Answer: 65.2 µg/g

Question: What about the Activity [7] of the same compound?
Answer: 21.73 nmol/min/mg

Question: And the Activity [8]?
Answer: 3.61 nmol/min/mg

Question: What about the Activity [9] of the same compound?
Answer: 0.345 µM/min

Question: What about the Activity [10] of the same compound?
Answer: 0.066 µM/min

Question: And the Activity [11]?
Answer: 0.063 nmol/min/mg

Question: And the Activity [12]?
Answer: 0.057 nmol/min/mg

Question: And the Activity [13]?
Answer: 36.11 µM/h

Question: What about the Activity [14] of the same compound?
Answer: 5.6 µM/h

Question: What about the Activity [15] of the same compound?
Answer: 2.61 mg/g

Question: And the Activity [16]?
Answer: 34 uU/ml

Question: What about the Activity [17] of the same compound?
Answer: 57.57 mg/dL

Question: And the Activity [18]?
Answer: 51.66 mg/dL

Question: What about the Activity [19] of the same compound?
Answer: 1.56 µmol/dL

Question: What about the Activity [20] of the same compound?
Answer: 220.86 mg/dL

Question: And the Activity [21]?
Answer: 269.72 mg/dL

Question: What about the Activity [22] of the same compound?
Answer: 60%

Question: And the Activity [23]?
Answer: 5.14 mg/g

Question: What about the Activity [24] of the same compound?
Answer: 10.47 mg/g

Question: What about the Activity [25] of the same compound?
Answer: 6.3 mg/g

Question: And the Activity [26]?
Answer: 7.92 mg/g

Question: What about the Activity [27] of the same compound?
Answer: 0.2 µmol/g

Question: And the Activity [28]?
Answer: 0.59 µmol/g

Question: And the Activity [29]?
Answer: 3.6 mg/g

Question: And the Activity [30]?
Answer: 28.49 mg/g

Question: And the Activity [31]?
Answer: 19%

Question: And the Activity [32]?
Answer: 80%

Question: What about the Activity [33] of the same compound?
Answer: 1.25 mg/g
